{"source": "patent US20110268669A1", "about": "“COMPOSITION AND METHOD FOR TREATING EUSTACHIAN TUBE DYSFUNCTION” (priority 2010, published 2011)", "origin": "cited, not measured here", "settings": "taken as a chewing gum", "data": [{"smiles": "OC[C@@H](O)[C@H](O)[C@@H](O)CO", "note": "[Xylitol]", "values": [{"measurement": "prevention of otitis media", "value": "shown to prevent otitis media"}]}]}
